Data set [1] concerns the target T1, human amylin receptor (amylin 3(a) receptor: human calcitonin receptor + RAMP-3) (Homo sapiens, UniProt O60896+P30988).
T1 construct: expressed in transfected cells
T1 sequence (P30988 25-474): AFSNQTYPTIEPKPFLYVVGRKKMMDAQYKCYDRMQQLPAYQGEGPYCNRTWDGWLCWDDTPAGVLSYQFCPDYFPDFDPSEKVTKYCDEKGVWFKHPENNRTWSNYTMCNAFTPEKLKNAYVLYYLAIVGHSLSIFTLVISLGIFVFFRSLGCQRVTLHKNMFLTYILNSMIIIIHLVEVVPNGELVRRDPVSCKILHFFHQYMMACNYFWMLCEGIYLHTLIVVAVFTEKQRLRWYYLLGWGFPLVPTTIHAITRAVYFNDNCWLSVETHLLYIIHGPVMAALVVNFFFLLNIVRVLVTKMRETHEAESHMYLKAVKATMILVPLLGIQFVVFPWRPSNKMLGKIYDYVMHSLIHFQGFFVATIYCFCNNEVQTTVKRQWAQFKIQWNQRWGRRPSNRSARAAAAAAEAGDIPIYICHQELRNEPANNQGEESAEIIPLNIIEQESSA
T1 sequence (O60896 24-148 partner): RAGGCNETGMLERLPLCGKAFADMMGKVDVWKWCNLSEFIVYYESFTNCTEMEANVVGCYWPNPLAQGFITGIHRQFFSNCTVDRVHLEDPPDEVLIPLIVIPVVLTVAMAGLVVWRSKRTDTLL
The data set is described as follows: Assay (II)a functional assay, human amylin receptor (CRE luciferase, BHK cells). Format: cell-based. The following applies: for EC50: functional assay, human amylin receptor, read-out: hAmylin-R funct. EC50.

The target in data set [2] is T2, human calcitonin receptor (Homo sapiens, UniProt P30988).
T2 construct: expressed in transfected cells
T2 sequence (P30988 25-474): T1 sequence (P30988 25-474)
The data set is described as follows: Assay (II)a functional assay, human calcitonin receptor (CRE luciferase, BHK cells).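 Also: luminescence from a CRE-driven luciferase reporter, read by single photon counting after cells were exposed to test samples for 3 h at 37 °C under 5% CO2.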 In kind it is cell-based. The following applies: read-out: hCTR funct. EC50.
Protocol: Assay (II)—Functional Assays
Consequently, transcription is activated by promoters containing multiple copies of the cAMP response element (CRE).
The cell line was further transfected with RAMP-3, using standard methods.
After incubation overnight at 37° C. and 5% CO2, the growth medium was replaced by 50 μl/well assay medium (DMEM (without phenol red), Glutamax™, 10% FBS, and 10 mM Hepes, pH 7.4). Further, 50 μl/well of standard or sample in assay buffer were added. After 3 hours incubation at 37° C. and 5% CO2, the assay medium with standard or sample were removed and replaced by 100 μl/well PBS. Further, 100 μl/well LucLite™ was added. The plates were sealed and incubated at room temperature for 30 minutes. Finally, luminescence was measured on a TopCounter (Packard) in SPC (single photon counting) mode.

The target in another data set is T3, human amylin receptor (Homo sapiens, UniProt O60896+P30988).
T3 construct: expressed in transfected cells
T3 sequence (P30988 25-474): T1 sequence (P30988 25-474)
T3 sequence (O60896 24-148 partner): T1 sequence (O60896 24-148 partner)
The data set is described as follows: Assay (V) binding to the human amylin receptor (SPA, 125I-rat amylin). The following applies: for IC50: read-out: hAmylin-R bind IC50. The gist of the method:
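IC50, taken as receptor affinity, came from one-site binding competition analysis of scintillation proximity counts. Amylin 3(a)/CRE-luc cell membranes (35 ng/μL final) were mixed with SPA beads (0.05 mg/well) in 50 mM Hepes pH 7.4 containing CaCl2, MgCl2, 0.1% OA and 0.02% Tween20.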

In data set [3] the target is T2, human calcitonin receptor. As to the kind of experiment: Assay (VII) binding to the human calcitonin receptor (SPA, 125I-Calcitonin).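 Also: cell membranes coupled to SPA beads, competitive displacement read by scintillation counting, IC50 derived from a one-site competition fit as a measure of receptor affinity.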 As to conditions: read-out: hCTR bind IC50.
Protocol: Membranes were prepared in the following way; the cells were rinsed with PBS and incubated with Versene for approximately 5 min before harvesting. The cells were flushed with PBS and the cell-suspension was centrifuged for 5 min at 1000 rpm. […] The resulting pellet was resuspended in buffer 2 and protein concentration was measured (BCA protein Assay, Pierce). The homogenate was kept cold during the whole procedure. The membranes were kept at −80° C. until use. Assay was performed in a 384 well Optiplate (PerkinElmer) in a total volume of 40 ul. Membranes were mixed with SPA beads. Final concentration of membranes 35 ng/μL final and Final concentration of SPA beads was 0.05 mg/well. Test-compounds were dissolved in DMSO and further diluted in assay buffer (50 mM Hepes, pH 7.4, 1 mM CaCl2, 5 mM MgCl2, 0.1% OA and 0.02% Tween20). […] Samples were analyzed on TopCounter™ (Packard). The IC50 was calculated using (one site binding competition analysis) GraphPad Prism5 as a measure of receptor affinity.
In another data set the test system is Wistar rats. As to the kind of experiment: Assay (XII) single subcutaneous administration, plasma calcium in rats. The following applies: for Plasma calcium red (%) 0-12 h: single s.c., maximal reduction 0-12 h, compared to vehicle; for suppression of plasma calcium level relative to vehicle: single subcutaneous, over 24 hours. Format: in vivo, rat. The protocol:
Assay (XII)—Effect from Single Subcutaneous Administration of Analogue on Plasma Calcium in Rats
Male Wistar rats (Taconic Europe, ˜250 g at test date) were acclimatized to handling prior to the study. Rats were divided in groups of five and subcutaneously dosed with test compound at time=0. At time T=−15 min; 1 h, 2 h, 4 h, 7 h, 12 h, and 24 h a blood sample was obtained and heparin stabilized plasma was analysed for total calcium (Cobas, Hitachi). Data are illustrated in graphs as mean±SEM.

Data set [4] can be described thus: Assay (IV) determination of solubility. In kind it is physicochemical. The protocol:
Assay (IV)—Determination of Solubility
The polypeptide was dissolved in water at ˜500 nmol/ml and mixed 1:1 with a series of buffers (100 mM glycylglycine pH 3.0, 100 mM glycylglycine pH 4.0, 100 mM glycylglycine pH 5.0, 100 mM bistrispropane pH 6.0, 100 mM bistrispropane pH 6.5, 100 mM bistrispropane pH 7.0, 100 mM bistrispropane pH 7.5, 100 mM bistrispropane pH 8.0). After 18 hours at room temperature the samples were centrifuged and the polypeptide concentration determined by UPLC.

The mark [5] stands for this setting: human amylin receptor membranes, SPA.

Read-outs that look alike come from different tables or passages of the source. Numbered stars: 1 amine (or outer) side, 2 acyl side, 3 side chain; on linkers, the order of the positions; unused ones are H or OH. Bridge positions count the residues as written; N and C are the ends. Side chains are listed from the residue outwards. Peptide text beside a SMILES is read from it. * marks the point of attachment. C20 diacid = O=C(O)CCCCCCCCCCCCCCCCCCC(=O)*; γGlu = O=C(O)[C@H](CCC(=O)[*:2])N[*:1]

Consider `CC[C@H](C)[C@H](NC(=O)[C@H](C)NC(=O)CNC(=O)[C@H](Cc1ccccc1)NC(=O)[C@H](CC(N)=O)NC(=O)[C@@H]1CCCN1C(=O)[C@H](CO)NC(=O)[C@H](CO)NC(=O)[C@H](Cc1c[nH]cn1)NC(=O)[C@H](CCCNC(=N)N)NC(=O)[C@H](CC(C)C)NC(=O)[C@H](Cc1ccccc1)NC(=O)[C@H](CC(=O)O)NC(=O)[C@H](C)NC(=O)[C@H](CC(C)C)NC(=O)[C@H](CCCNC(=N)N)NC(=O)[C@H](CCC(N)=O)NC(=O)[C@@H](NC(=O)[C@H](C)NC(=O)[C@@H]1CSSC[C@H](NC(=O)[C@@H](N)CCCCNC(=O)CC[C@H](NC(=O)CC[C@H](NC(=O)CCCCCCCCCCCCCCCCCCC(=O)O)C(=O)O)C(=O)O)C(=O)N[C@@H](CC(N)=O)C(=O)N[C@@H]([C@@H](C)O)C(=O)N[C@@H](C)C(=O)N[C@@H]([C@@H](C)O)C(=O)N1)[C@@H](C)O)C(=O)N1CCC[C@H]1C(=O)N[C@@H](CO)C(=O)N[C@@H](CO)C(=O)N[C@H](C(=O)N[C@@H](CC(N)=O)C(=O)N[C@H](C(=O)NCC(=O)N[C@@H](CO)C(=O)N[C@@H](CC(=O)O)C(=O)N[C@H](C(=O)N[C@@H](Cc1ccc(O)cc1)C(N)=O)[C@@H](C)O)C(C)C)[C@@H](C)O` [Example 2] (H-K([γGlu-γGlu-C20 diacid])CNTATCATQRLADFLRHSSPNFGAIPSSTNVGSDTY-NH2; disulfide 2-7), for which the EC50 in data set [1] amounted to 0.182 nM; in data set [2] it was 3 nM. Besides, the IC50 was 0.411 nM on human amylin receptor (setting [5]) and 19.5 nM in data set [3]. Further, the “Plasma calcium red (%) 0-12 h” value in the data set on Wistar rats (100 nmol/kg) worked out at 9%. Moreover, in the data set on Wistar rats (100 nmol/kg), the “suppression of plasma calcium level relative to vehicle” value is given as “does not trigger a notable suppression of the calcium level”.

On to `CC[C@H](C)[C@H](NC(=O)[C@H](C)NC(=O)CNC(=O)[C@H](Cc1ccccc1)NC(=O)[C@H](CC(N)=O)NC(=O)[C@@H]1CCCN1C(=O)[C@H](CO)NC(=O)[C@H](CO)NC(=O)[C@H](Cc1c[nH]cn1)NC(=O)[C@H](CCCNC(=N)N)NC(=O)[C@H](CC(C)C)NC(=O)[C@H](Cc1ccccc1)NC(=O)[C@H](CCC(=O)O)NC(=O)[C@H](C)NC(=O)[C@H](CC(C)C)NC(=O)[C@H](CCCNC(=N)N)NC(=O)[C@H](CCC(N)=O)NC(=O)[C@@H](NC(=O)[C@H](C)NC(=O)[C@@H]1CSSC[C@H](NC(=O)[C@@H](N)CCCCNC(=O)CC[C@H](NC(=O)CCCCCCCCCCCCCCCCCCC(=O)O)C(=O)O)C(=O)N[C@@H](CC(N)=O)C(=O)N[C@@H]([C@@H](C)O)C(=O)N[C@@H](C)C(=O)N[C@@H]([C@@H](C)O)C(=O)N1)[C@@H](C)O)C(=O)N1CCC[C@H]1C(=O)N[C@@H](CO)C(=O)N[C@@H](CO)C(=O)N[C@H](C(=O)N[C@@H](CC(N)=O)C(=O)N[C@H](C(=O)NCC(=O)N[C@@H](CO)C(=O)N[C@@H](CCCNC(=N)N)C(=O)N[C@H](C(=O)N[C@@H](Cc1ccc(O)cc1)C(N)=O)[C@@H](C)O)C(C)C)[C@@H](C)O` [Example 51] (H-K([γGlu-C20 diacid])CNTATCATQRLAEFLRHSSPNFGAIPSSTNVGSRTY-NH2; disulfide 2-7), for which the “Ratio hCT/hAmylin funct.” value in data set [1] (Table 6, human functional selectivity (hCTR EC50 / hAmylin-R EC50)) was 14.0; in data set [1] (Table 6a, human functional selectivity (hCTR EC50 / hAmylin-R EC50), at least 5), 14.0; in data set [1] (Table 6i, hCTR funct. EC50 / hAmylin-R funct. EC50), 14.0; in data set [1] (Table 6j, hCTR funct. EC50 / hAmylin-R funct. EC50), 14.0; in data set [1] (Table 6k, hCTR funct. EC50 / hAmylin-R funct. EC50), 14.0. For the same compound, the EC50 in data set [1] was found to be 0.372 nM; in data set [2], 5.22 nM. Further, the IC50 at human amylin receptor (setting [5]) amounted to 0.828 nM; in data set [3], 31.1 nM. Moreover, the “Plasma calcium red (%) 0-12 h” value in the data set on Wistar rats (30 nmol/kg) amounted to 10%. Besides, the “suppression of plasma calcium level relative to vehicle” value with Wistar rats (30 nmol/kg) is “None of the example compounds at 30 nmol/kg trigger a notable suppression of the calcium level”.

As for `CC[C@H](C)[C@H](NC(=O)[C@H](C)NC(=O)CNC(=O)[C@H](Cc1ccccc1)NC(=O)[C@H](CC(N)=O)NC(=O)[C@@H]1CCCN1C(=O)[C@H](CO)NC(=O)[C@H](CO)NC(=O)[C@H](Cc1c[nH]cn1)NC(=O)[C@H](CCCNC(=N)N)NC(=O)[C@H](CC(C)C)NC(=O)[C@H](Cc1ccccc1)NC(=O)[C@H](CCC(=O)O)NC(=O)[C@H](C)NC(=O)[C@H](CC(C)C)NC(=O)[C@H](CCCNC(=N)N)NC(=O)[C@H](CCC(N)=O)NC(=O)[C@@H](NC(=O)[C@H](C)NC(=O)[C@@H]1CSSC[C@H](NC(=O)[C@@H](N)CCCCNC(=O)CC[C@H](NC(=O)CCCCCCCCCCCCCCCCCCC(=O)O)C(=O)O)C(=O)N[C@@H](CC(N)=O)C(=O)N[C@@H]([C@@H](C)O)C(=O)N[C@@H](C)C(=O)N[C@@H]([C@@H](C)O)C(=O)N1)[C@@H](C)O)C(=O)N1CCC[C@H]1C(=O)N[C@@H](CO)C(=O)N[C@@H](CO)C(=O)N[C@H](C(=O)N[C@@H](CC(N)=O)C(=O)N[C@H](C(=O)NCC(=O)N1CCC[C@H]1C(=O)N[C@@H](Cc1c[nH]cn1)C(=O)N[C@H](C(=O)N[C@@H](Cc1ccc(O)cc1)C(N)=O)[C@@H](C)O)C(C)C)[C@@H](C)O` [Example 118] (H-K([γGlu-C20 diacid])CNTATCATQRLAEFLRHSSPNFGAIPSSTNVGPHTY-NH2; disulfide 2-7), the concentration giving a half-maximal response (EC50) in data set [1] is 0.101 nM; in data set [2] it was 1.45 nM. Further, the IC50 on human amylin receptor (setting [5]) was determined as 0.179 nM; in data set [3], 3.8 nM. For the same compound, in the data set with Wistar rats (30 nmol/kg), the “Plasma calcium red (%) 0-12 h” value is on record as 26%.

Turning to `CC[C@H](C)[C@H](NC(=O)[C@H](C)NC(=O)CNC(=O)[C@@H]1CCCN1C(=O)[C@H](CC(N)=O)NC(=O)[C@H](CC(N)=O)NC(=O)[C@H](CO)NC(=O)[C@H](CO)NC(=O)[C@H](Cc1c[nH]cn1)NC(=O)[C@H](CCCNC(=N)N)NC(=O)[C@H](CC(C)C)NC(=O)[C@H](Cc1ccccc1)NC(=O)[C@H](CCC(=O)O)NC(=O)[C@H](C)NC(=O)[C@H](CC(C)C)NC(=O)[C@H](CCCNC(=N)N)NC(=O)[C@H](CCC(N)=O)NC(=O)[C@@H](NC(=O)[C@H](C)NC(=O)[C@@H]1CSSC[C@H](NC(=O)[C@@H](N)CCCCNC(=O)CC[C@H](NC(=O)CC[C@H](NC(=O)CCCCCCCCCCCCCCCCCCC(=O)O)C(=O)O)C(=O)O)C(=O)N[C@@H](CC(N)=O)C(=O)N[C@@H]([C@@H](C)O)C(=O)N[C@@H](C)C(=O)N[C@@H]([C@@H](C)O)C(=O)N1)[C@@H](C)O)C(=O)N[C@@H](CC(C)C)C(=O)N[C@@H](CO)C(=O)N[C@@H](CO)C(=O)N[C@H](C(=O)N[C@@H](CC(N)=O)C(=O)N[C@H](C(=O)NCC(=O)N1CCC[C@H]1C(=O)N[C@@H](CCC(=O)O)C(=O)N[C@H](C(=O)N[C@@H](Cc1ccc(O)cc1)C(N)=O)[C@@H](C)O)C(C)C)[C@@H](C)O` [Example 126] (H-K([γGlu-γGlu-C20 diacid])CNTATCATQRLAEFLRHSSNNPGAILSSTNVGPETY-NH2; disulfide 2-7), the figures for the EC50 in data set [1] and in data set [2] were 5.17 nM and 89.6 nM, respectively. For the same compound, the “Solubility pH 4.0 Concentration (μM)” value in data set [4] (pH 4.0, 18 hours room temperature) was found to be 7 μM. In data set [4] (pH 6.0, 18 hours room temperature), the “Solubility pH 6.0 Concentration (μM)” value is on record as 64 μM. Besides, the IC50 on human amylin receptor (binding to human amylin receptor) amounted to 1.19 nM; at human amylin receptor (setting [5]), 1.19 nM; in data set [3], 9.29 nM. Moreover, at human amylin receptor (human binding ratio, included for comparison), the “Ratio hCT/hAmylin binding” value was 7.8.

The record behind these values is patent publication US8575091B1, “Amylin analogues and pharmaceutical compositions thereof” (Novo Nordisk A/S, priority 2012, dated 2013).
